From ChEMBL document CHEMBL5356994, “Synthesis, biological and molecular modelling for 1,3,4-thiadiazole sulfonyl thioureas: bacterial and fungal activity” (RSC Med Chem, 2023)
≈ marks a conversion by molar mass, not a printed value.

Columns and labels:
Phytophthora infestans = test: Antifungal activity against Phytophthora infestans assessed as inhibition of fungal growth incubated for 5 days by poison plate technique; assay type: functional, organism-based; conditions: 120 h
Candida albicans [1] = test: Antifungal activity against Candida albicans assessed as inhibition of fungal growth incubated for 72 hrs by agar dilution method; assay type: functional
[2] = tested on: Staphylococcus epidermidis; test: Antibacterial activity against Staphylococcus epidermidis assessed as inhibition of bacterial growth incubated for 18 to 20 hrs by microbroth dilution method; assay type: functional; conditions: time 18-20 hrs
Salmonella typhimurium = test: Antibacterial activity against Salmonella typhimurium assessed as inhibition of bacterial growth incubated for 18 to 20 hrs by microbroth dilution method; assay type: functional, Salmonella enterica subsp. enterica serovar Typhimurium; conditions: Salmonella enterica; time 18-20 hrs
Fusarium oxysporum = test: Antifungal activity against Fusarium oxysporum assessed as inhibition of fungal growth incubated for 72 hrs by agar dilution method; assay type: functional
Pseudomonas aeruginosa = test: Antibacterial activity against Pseudomonas aeruginosa assessed as inhibition of bacterial growth incubated for 18 to 20 hrs by microbroth dilution method; assay type: functional; conditions: time 18-20 hrs
Bacillus subtilis = test: Antibacterial activity against Bacillus subtilis assessed as inhibition of bacterial growth incubated for 18 to 20 hrs by microbroth dilution method; assay type: functional; conditions: time 18-20 hrs
Aspergillus niger = test: Antifungal activity against Aspergillus niger assessed as inhibition of fungal growth incubated for 72 hrs by agar dilution method; assay type: functional
Staphylococcus aureus [3] = test: Antibacterial activity against Staphylococcus aureus assessed as inhibition of bacterial growth incubated for 18 to 20 hrs by microbroth dilution method; assay type: functional; conditions: time 18-20 hrs
Escherichia coli [4] = test: Antibacterial activity against Escherichia coli assessed as inhibition of bacterial growth incubated for 18 to 20 hrs by microbroth dilution method; assay type: functional; conditions: time 18-20 hrs
Klebsiella pneumoniae = test: Antibacterial activity against Klebsiella pneumoniae assessed as inhibition of bacterial growth incubated for 18 to 20 hrs by microbroth dilution method; assay type: functional; conditions: time 18-20 hrs
Aspergillus flavus [5] = test: Antifungal activity against Aspergillus flavus assessed as inhibition of fungal growth incubated for 72 hrs by agar dilution method; assay type: functional
Clostridioides difficile = test: Antibacterial activity against Clostridium difficile assessed as inhibition of bacterial growth incubated for 18 to 20 hrs by microbroth dilution method; assay type: functional; conditions: time 18-20 hrs
Saccharomyces cerevisiae = test: Antifungal activity against Saccharomyces cerevisiae assessed as inhibition of fungal growth incubated for 72 hrs by agar dilution method; assay type: functional
Streptococcus pneumoniae = test: Antibacterial activity against Streptococcus pneumoniae assessed as inhibition of bacterial growth incubated for 18 to 20 hrs by microbroth dilution method; assay type: functional; conditions: time 18-20 hrs
Carbonic anhydrase 2 = Carbonic anhydrase 2 (Homo sapiens, UniProt P00918); test: Inhibition of human carbonic anhydrase II esterase activity using p-nitrophenol acetate as substrate and measured for 3 mins by UV/visible spectrophotometric analysis
Dihydrofolate reductase = Dihydrofolate reductase (Staphylococcus aureus, UniProt P0A017); test: Inhibition of Staphylococcus aureus dihydrofolate reductase using dihydrofolate as substrate in presence of NADPH by microplate reader analysis
Sequence of Dihydrofolate reductase (P0A017 whole entry): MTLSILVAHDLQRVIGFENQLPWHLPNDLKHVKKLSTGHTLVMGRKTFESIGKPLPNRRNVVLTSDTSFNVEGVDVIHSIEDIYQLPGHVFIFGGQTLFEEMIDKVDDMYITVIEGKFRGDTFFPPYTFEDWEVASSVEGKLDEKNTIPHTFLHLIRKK

[6] = target: DNA topoisomerase 4 subunit B (Staphylococcus aureus, UniProt P0C1S7); test: Inhibition of Staphylococcus aureus DNA topoisomerase 4 subunit B ATPase activity using relaxed pNO1 plasmid as substrate incubated for 30 mins by microplate reader analysis
Sequence of DNA topoisomerase 4 subunit B (P0C1S7 whole entry): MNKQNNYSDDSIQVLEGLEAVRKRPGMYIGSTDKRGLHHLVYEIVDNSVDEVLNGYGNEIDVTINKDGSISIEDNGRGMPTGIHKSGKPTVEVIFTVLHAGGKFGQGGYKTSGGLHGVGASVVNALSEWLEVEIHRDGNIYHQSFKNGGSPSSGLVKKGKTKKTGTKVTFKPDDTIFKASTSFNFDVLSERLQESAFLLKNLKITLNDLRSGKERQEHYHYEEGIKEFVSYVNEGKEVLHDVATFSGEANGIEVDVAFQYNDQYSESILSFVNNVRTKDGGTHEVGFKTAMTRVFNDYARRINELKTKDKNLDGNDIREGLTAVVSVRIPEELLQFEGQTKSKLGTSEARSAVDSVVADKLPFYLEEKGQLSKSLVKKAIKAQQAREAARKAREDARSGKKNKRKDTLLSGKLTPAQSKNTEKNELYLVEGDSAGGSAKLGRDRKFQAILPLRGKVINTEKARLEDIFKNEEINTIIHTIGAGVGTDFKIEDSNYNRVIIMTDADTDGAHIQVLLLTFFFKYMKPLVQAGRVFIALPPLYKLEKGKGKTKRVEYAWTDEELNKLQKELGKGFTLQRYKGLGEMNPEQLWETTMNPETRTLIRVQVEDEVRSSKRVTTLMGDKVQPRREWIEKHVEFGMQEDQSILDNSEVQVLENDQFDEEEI

DNA gyrase subunit B = DNA gyrase subunit B (Staphylococcus aureus, UniProt P0A0K8); test: Inhibition of Staphylococcus aureus DNA gyrase subunit B ATPase activity using relaxed pNO1 plasmid as substrate incubated for 30 mins by microplate reader analysis
Sequence of DNA gyrase subunit B (P0A0K8 whole entry): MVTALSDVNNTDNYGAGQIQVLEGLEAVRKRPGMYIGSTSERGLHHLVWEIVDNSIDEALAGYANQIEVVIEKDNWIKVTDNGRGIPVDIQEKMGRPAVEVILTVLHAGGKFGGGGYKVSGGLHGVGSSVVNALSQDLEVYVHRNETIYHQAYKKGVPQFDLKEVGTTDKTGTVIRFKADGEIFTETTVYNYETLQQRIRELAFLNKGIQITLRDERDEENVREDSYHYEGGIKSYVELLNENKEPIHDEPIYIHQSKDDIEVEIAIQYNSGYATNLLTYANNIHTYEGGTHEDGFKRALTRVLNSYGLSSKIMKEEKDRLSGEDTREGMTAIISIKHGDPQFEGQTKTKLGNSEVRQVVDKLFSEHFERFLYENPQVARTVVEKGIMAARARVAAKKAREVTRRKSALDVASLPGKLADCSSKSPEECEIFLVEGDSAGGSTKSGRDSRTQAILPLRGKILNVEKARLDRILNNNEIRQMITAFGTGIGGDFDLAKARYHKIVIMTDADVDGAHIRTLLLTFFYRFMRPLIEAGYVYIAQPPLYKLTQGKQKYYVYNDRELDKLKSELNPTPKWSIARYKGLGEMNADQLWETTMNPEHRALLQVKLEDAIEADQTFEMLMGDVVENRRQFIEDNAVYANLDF

[7] = tested on: Mycobacterium tuberculosis; test: Antitubercular activity against Mycobacterium tuberculosis H37Rv assessed as inhibition of bacterial growth incubated for 24 hrs by two-fold dilution method; assay type: functional
Escherichia coli [8] = test: Antibacterial activity against Escherichia coli assessed as inhibition of bacterial growth incubated for 16 to 18 hrs by serial dilution method; assay type: functional; conditions: time 16-18 hrs
Aspergillus flavus [9] = test: Antifungal activity against Aspergillus flavus assessed as inhibition of fungal growth incubated for 16 to 18 hrs by serial dilution method; assay type: functional; conditions: time 16-18 hrs
Staphylococcus aureus [10] = test: Antibacterial activity against Staphylococcus aureus assessed as inhibition of bacterial growth incubated for 16 to 18 hrs by serial dilution method; assay type: functional; conditions: time 16-18 hrs
Candida albicans [11] = test: Antifungal activity against Candida albicans assessed as inhibition of fungal growth incubated for 16 to 18 hrs by serial dilution method; assay type: functional; conditions: time 16-18 hrs
Candida albicans [12] = test: Antifungal activity against Candida albicans assessed as inhibition of fungal growth incubated for 20 hrs by macro-broth dilution method; assay type: functional

COc1ccc(/C(=C/C(=O)N2CCOCC2)c2ccc(Cl)cc2)cc1OC
EC50 (Phytophthora infestans): 5.53 µg/mL (≈ 14.3 µM)

Cc1ccc(S(=O)(=O)NC(=S)Nc2nnc(CC(C)C)s2)cc1
MIC (Candida albicans [1]): 3.12 µg/mL (≈ 8.43 µM)
MIC [2]: 12.5 µg/mL (≈ 33.7 µM)
MIC (Salmonella typhimurium): 50 µg/mL (≈ 135 µM)
MIC (Fusarium oxysporum): 1.56 µg/mL (≈ 4.21 µM)
MIC (Pseudomonas aeruginosa): 6.25 µg/mL (≈ 16.9 µM)
MIC (Bacillus subtilis): 0.78 µg/mL (≈ 2.11 µM)
MIC (Aspergillus niger): 50 µg/mL (≈ 135 µM)
MIC (Staphylococcus aureus [3]): 100 µg/mL (≈ 270 µM)
MIC (Escherichia coli [4]): 6.25 µg/mL (≈ 16.9 µM)
MIC (Klebsiella pneumoniae): 400 µg/mL (≈ 1080 µM)
MIC (Aspergillus flavus [5]): 0.78 µg/mL (≈ 2.11 µM)
MIC (Clostridioides difficile): 3.12 µg/mL (≈ 8.43 µM)
MIC (Saccharomyces cerevisiae): 3.12 µg/mL (≈ 8.43 µM)
MIC (Streptococcus pneumoniae): 0.78 µg/mL (≈ 2.11 µM)

CCCc1nnc(NC(=S)NS(=O)(=O)c2ccc(C)cc2)s1
MIC (Candida albicans [1]): 3.12 µg/mL (≈ 8.77 µM)
MIC [2]: 25 µg/mL (≈ 70.1 µM)
MIC (Salmonella typhimurium): 25 µg/mL (≈ 70.1 µM)
MIC (Fusarium oxysporum): 200 µg/mL (≈ 561 µM)
MIC (Pseudomonas aeruginosa): 100 µg/mL (≈ 281 µM)
MIC (Bacillus subtilis): 3.12 µg/mL (≈ 8.77 µM)
MIC (Aspergillus niger): 12.5 µg/mL (≈ 35.1 µM)
MIC (Staphylococcus aureus [3]): 50 µg/mL (≈ 140 µM)
MIC (Escherichia coli [4]): 12.5 µg/mL (≈ 35.1 µM)
MIC (Klebsiella pneumoniae): 25 µg/mL (≈ 70.1 µM)
MIC (Aspergillus flavus [5]): 1.56 µg/mL (≈ 4.38 µM)
MIC (Clostridioides difficile): 25 µg/mL (≈ 70.1 µM)
MIC (Saccharomyces cerevisiae): 1.56 µg/mL (≈ 4.38 µM)
MIC (Streptococcus pneumoniae): 1.56 µg/mL (≈ 4.38 µM)

O=S(=O)(NC(=S)Nc1ccccc1)c1ccc(Cl)cc1
IC50 (Carbonic anhydrase 2): 384 µM

CCCCc1nnc(NC(=S)NS(=O)(=O)c2ccc(C)cc2)s1
MIC (Candida albicans [1]): 400 µg/mL (≈ 1080 µM)
MIC [2]: 400 µg/mL (≈ 1080 µM)
MIC (Salmonella typhimurium): 400 µg/mL (≈ 1080 µM)
MIC (Fusarium oxysporum): 400 µg/mL (≈ 1080 µM)
MIC (Pseudomonas aeruginosa): 400 µg/mL (≈ 1080 µM)
MIC (Bacillus subtilis): 400 µg/mL (≈ 1080 µM)
MIC (Aspergillus niger): 400 µg/mL (≈ 1080 µM)
MIC (Staphylococcus aureus [3]): 400 µg/mL (≈ 1080 µM)
MIC (Escherichia coli [4]): 400 µg/mL (≈ 1080 µM)
MIC (Klebsiella pneumoniae): 400 µg/mL (≈ 1080 µM)
MIC (Aspergillus flavus [5]): 400 µg/mL (≈ 1080 µM)
MIC (Clostridioides difficile): 400 µg/mL (≈ 1080 µM)
MIC (Saccharomyces cerevisiae): 400 µg/mL (≈ 1080 µM)
MIC (Streptococcus pneumoniae): 400 µg/mL (≈ 1080 µM)

CCc1nnc(NC(=S)NS(=O)(=O)c2ccc(C)cc2)s1
MIC (Candida albicans [1]): 1.56 µg/mL (≈ 4.56 µM)
MIC [2]: 50 µg/mL (≈ 146 µM)
MIC (Salmonella typhimurium): 3.12 µg/mL (≈ 9.12 µM)
MIC (Fusarium oxysporum): 6.25 µg/mL (≈ 18.2 µM)
MIC (Pseudomonas aeruginosa): 50 µg/mL (≈ 146 µM)
MIC (Bacillus subtilis): 1.56 µg/mL (≈ 4.56 µM)
IC50 (Dihydrofolate reductase): 0.47 µM
MIC (Aspergillus niger): 100 µg/mL (≈ 292 µM)
MIC (Staphylococcus aureus [3]): 6.25 µg/mL (≈ 18.2 µM)
MIC (Escherichia coli [4]): 200 µg/mL (≈ 584 µM)
MIC (Klebsiella pneumoniae): 12.5 µg/mL (≈ 36.5 µM)
MIC (Aspergillus flavus [5]): 6.25 µg/mL (≈ 18.2 µM)
IC50 [6]: 78.1 µM
MIC (Clostridioides difficile): 0.78 µg/mL (≈ 2.28 µM)
IC50 (DNA gyrase subunit B): 3.17 µM
MIC (Saccharomyces cerevisiae): 25 µg/mL (≈ 73 µM)
MIC (Streptococcus pneumoniae): 3.12 µg/mL (≈ 9.12 µM)

FC(F)(F)c1cc(NC(=S)Nc2nnc(-c3ccc(Cl)cc3)s2)ccc1Cl
MIC [7]: 10.9 µM (≈ 4.9 µg/mL)

S=C(/N=C/c1cc2cc(Cl)ccc2nc1Cl)Nc1nnc(-c2ccc(Cl)cc2)s1
MIC (Escherichia coli [8]): 3.12 µg/mL (≈ 6.52 µM)
MIC (Aspergillus flavus [9]): 3.12 µg/mL (≈ 6.52 µM)
MIC (Staphylococcus aureus [10]): 3.12 µg/mL (≈ 6.52 µM)
MIC (Candida albicans [11]): 3.12 µg/mL (≈ 6.52 µM)

CC(=O)OC[C@H]1O[C@@H](Sc2nnc(NC(=O)c3ccc(F)cc3)s2)[C@@H](OC(C)=O)[C@H](OC(C)=O)[C@@H]1OC(C)=O
EC50 (Phytophthora infestans): 3.43 µg/mL (≈ 5.86 µM)

Cc1ccc(S(=O)(=O)NC(=S)Nc2nnc(C)s2)cc1
MIC (Candida albicans [1]): 0.78 µg/mL (≈ 2.37 µM)
MIC [2]: 100 µg/mL (≈ 304 µM)
MIC (Salmonella typhimurium): 12.5 µg/mL (≈ 38.1 µM)
MIC (Fusarium oxysporum): 25 µg/mL (≈ 76.1 µM)
MIC (Pseudomonas aeruginosa): 1.56 µg/mL (≈ 4.75 µM)
MIC (Bacillus subtilis): 6.25 µg/mL (≈ 19 µM)
MIC (Aspergillus niger): 50 µg/mL (≈ 152 µM)
MIC (Staphylococcus aureus [3]): 25 µg/mL (≈ 76.1 µM)
MIC (Escherichia coli [4]): 50 µg/mL (≈ 152 µM)
MIC (Klebsiella pneumoniae): 6.25 µg/mL (≈ 19 µM)
MIC (Aspergillus flavus [5]): 25 µg/mL (≈ 76.1 µM)
MIC (Clostridioides difficile): 6.25 µg/mL (≈ 19 µM)
MIC (Saccharomyces cerevisiae): 6.25 µg/mL (≈ 19 µM)
MIC (Streptococcus pneumoniae): 12.5 µg/mL (≈ 38.1 µM)

C=CCNc1nnc(-c2ccccc2OCc2ccc(Cl)cc2)s1
MIC (Candida albicans [12]): 0.08 µg/mL (≈ 0.224 µM)

Cc1ccc(S(=O)(=O)NC(=S)Nc2nncs2)cc1
MIC (Candida albicans [1]): 25 µg/mL (≈ 79.5 µM)
MIC [2]: 3.12 µg/mL (≈ 9.94 µM)
MIC (Salmonella typhimurium): 1.56 µg/mL (≈ 4.96 µM)
MIC (Fusarium oxysporum): 25 µg/mL (≈ 79.5 µM)
MIC (Pseudomonas aeruginosa): 25 µg/mL (≈ 79.5 µM)
MIC (Bacillus subtilis): 12.5 µg/mL (≈ 39.8 µM)
IC50 (Dihydrofolate reductase): 0.37 µM
MIC (Aspergillus niger): 200 µg/mL (≈ 636 µM)
MIC (Staphylococcus aureus [3]): 3.12 µg/mL (≈ 9.94 µM)
MIC (Escherichia coli [4]): 1.56 µg/mL (≈ 4.96 µM)
MIC (Klebsiella pneumoniae): 50 µg/mL (≈ 159 µM)
MIC (Aspergillus flavus [5]): 50 µg/mL (≈ 159 µM)
IC50 [6]: 67.6 µM
MIC (Clostridioides difficile): 200 µg/mL (≈ 636 µM)
IC50 (DNA gyrase subunit B): 1.56 µM
MIC (Saccharomyces cerevisiae): 12.5 µg/mL (≈ 39.8 µM)
MIC (Streptococcus pneumoniae): 12.5 µg/mL (≈ 39.8 µM)
